Data reported in patent publication US20240261243A1, “NITRIC OXIDE DONORS, COMPOSITIONS, AND METHODS OF USE” (priority 2020, published 2024).
In brackets after ≈: the same amount, converted by molar mass. Marks after values point to notes of the source that are not given here.

Tests used:
[1] = NO storage and release measurement (chemiluminescence nitric oxide analyzer); assay type: physicochemical
Protocol: N-diazeniumdiolates NO scaffolds are pH-triggered NO-release donors. Reacting with proton in the physiological condition (e.g., 37° C., pH 7.4), 1 mole of N-diazeniumdiolate regenerates 1 mole of the parent secondary amine compounds and two moles of NO radicals. The real-time detection of NO was performed by using a chemiluminescence-based nitric oxide analyzer (NOA). The total NO storage and dissociation kinetics of water-soluble NO Donors were measured in physiological condition (pH 7.40, 37° C.). The resulting NO-release parameters (e.g., total NO storage, half-life of NO release, maximum flux, and conversion efficiency) were evaluated for suitability as a pharmaceutical product.
Transfer the solution into the high-pressure vessel and purge the headspace with nitrogen. Mix the solution and set nitric oxide pressure to 25 bar (temp 20° C.). Allow the reaction to run for minimum of 3 days. Stop the reaction by venting the NO. Precipitate the reaction product in acetone (10:1 acetone:reaction mixture). Filter the precipitate and vacuum dry.
We sought to determine whether an NO donor and gallium nitrate have antimicrobial synergy against a lab strain of P. aeruginosa (PAK). The Checkerboard assay (described herein) was used with a hepta-substituted cyclodextrin-based NO donor (hereinafter referred to as BIOC76) having approximately ˜4.7 μmol NO/mg dry powder.

[2] = tested on: P. aeruginosa strains; assay: MIC/MBC of BIOC76 and gallium citrate alone against 21 strains; assay type: cell-based, Pseudomonas aeruginosa; conditions: for MBC Rep 1 / MIC Rep 1: alone
Excerpt: Determined the MIC of each test article individually against the strains being tested using the CLSI MIC/MBC method.
In this study, we established the MIC/MiBC's of BIOC76 and gallium citrate alone against each of 21 P. aeruginosa strains. […] The activity of both compounds is also strain-dependent. The results are as follows (the species for each strain is Pseudomonas aeruginosa: […]

[3] = tested on: P. aeruginosa (PAK); assay: Combination MIC/MBC assay, BIOC76 with fixed gallium citrate; assay type: cell-based, Pseudomonas aeruginosa
Protocol: Combination MIC/MBC assays are useful when you want to look at only a few concentrations of one compound (Gallium citrate) combined with many concentrations of the second compound (BIOC76).
This method also allows us to see the change in both the MIC and MBC of a drug when in combination with another drug. Checkerboard assays only allow us to see changes in the MIC's.
Test articles are added to a 96-well plate so that when a 2× bacterial culture (prepared to 10^6 CFU/ml) is added, the final concentration in all wells was 1×.
All test articles are prepared at 4×→diluted 1:1 when other TA is added (2×) and diluted 1:1 again to 1× when bacteria are added.
TA #1 (Gallium citrate) is prepared and added to entire rows of a plate at a single concentration.
TA #2 (BIOC76) in then prepared and serially diluted in TA #1, so there are 2-fold dilutions of TA #2 combined with a single concentration of TA #1.
Plates were incubated at 37° C. for 18-24 h.
The ΔMIC/IBC is used to show the change in the MIC/IBC of BIOC76 when in combination with Gallium citrate (compared to when BIOC76 is used alone).
ΔMIC/MBC is the fold-decrease in BIOC76 concentration as a result of the combination.
We concluded BIOC76 and gallium citrate maintain synergistic activity so long as the gallium concentration is at least about 0.005 to about 0.02 mg/ml. In this experimental, we set up MIC/MBC assay and serially diluted BIOC76 in rows with fixed concentrations of gallium citrate. […] The results are shown in FIG. 6, and in the following tables: […]

[4] = tested on: P. aeruginosa strain PAK
Protocol: All test articles are prepared at 4×→diluted 1:1 when other TA is added (2×), and diluted 1:1 again to 1× when bacteria are added
Experimental Design: The MIC of BIOC76 and Gallium nitrate individually, then set up a checkerboard assay testing 49 combinations of BIOC76 and Gallium nitrate concentrations against 10^6 CFU/ml P. aeruginosa strain PAK. Plates were incubated at 37° C. for 18-24 h, and growth was assessed visually.

[5] = tested on: P. aeruginosa biofilms; assay: Biofilm eradication (MBEC) on peg lid
[6] = strain N0049 (PAK), with 0.0156 mg/ml GaCi
[7] = strain N0049 (PAK), with 0.0325 mg/ml GaCi
[8] = strain N0049 (PAK), with 0.065 mg/ml GaCi
[9] = strain N0049 (PAK), with 0.125 mg/ml GaCi
[10] = strain N0049 (PAK), with 0.25 mg/ml GaCi
[11] = strain N0049 (PAK), with 0.5 mg/ml GaCi
[12] = strain N0049 (PAK), with 1 mg/ml GaCi
[13] = strain N0049 (PAK), with 2 mg/ml GaCi

O=NN(O)N(CCO)CC1OC2OC3C(CN(CCO)N(O)N=O)OC(OC4C(CN(CCO)N(O)N=O)OC(OC5C(CN(CCO)N(O)N=O)OC(OC6C(CN(CCO)N(O)N=O)OC(OC7C(CN(CCO)N(O)N=O)OC(OC8C(CN(CCO)N(O)N=O)OC(OC1C(O)C2O)C(O)C8O)C(O)C7O)C(O)C6O)C(O)C5O)C(O)C4O)C(O)C3O (centres unmarked) [BIOC76]
NO content [1]: ~4.7 μmol NO/mg dry powder
mode of activity alone (conclusion) ([2]; 21 P. aeruginosa strains): largely bacteriostatic
MBC Rep 1 ([2]; strain N0047 (AR-BANK #103)): 8000 µg/mL
MIC Rep 1 ([2]; strain N0047 (AR-BANK #103)): 2000 µg/mL
MBC Rep 1 ([2]; strain N0048 (ATCC 19143)): 2000 µg/mL
MIC Rep 1 ([2]; strain N0048 (ATCC 19143)): 500 µg/mL
MBC Rep 1 ([2]; strain N0049 (PAK)): 4000 µg/mL
MIC Rep 1 ([2]; strain N0049 (PAK)): 2000 µg/mL
MBC Rep 1 ([2]; strain N0050 (AR-BANK #0095)): 8000 µg/mL
MIC Rep 1 ([2]; strain N0050 (AR-BANK #0095)): 2000 µg/mL
MBC Rep 1 ([2]; strain N0051 (AU32077)): 4000 µg/mL
MIC Rep 1 ([2]; strain N0051 (AU32077)): 1000 µg/mL
MBC Rep 1 ([2]; strain N0052 (AU25834)): 2000 µg/mL
MIC Rep 1 ([2]; strain N0052 (AU25834)): 1000 µg/mL
MBC Rep 1 ([2]; strain N0053 (AU30524)): 16000 µg/mL
MIC Rep 1 ([2]; strain N0053 (AU30524)): 4000 µg/mL
MBC Rep 1 ([2]; strain N0054 (AU26773)): 16000 µg/mL
MIC Rep 1 ([2]; strain N0054 (AU26773)): 2000 µg/mL
MBC Rep 1 ([2]; strain N0055 (AU22725)): >8000 µg/mL
MIC Rep 1 ([2]; strain N0055 (AU22725)): 1000 µg/mL
MBC Rep 1 ([2]; strain N0056 (AU22505)): 16000 µg/mL
MIC Rep 1 ([2]; strain N0056 (AU22505)): 8000 µg/mL
MBC Rep 1 ([2]; strain N0057 (AU35400)): 32000 µg/mL
MIC Rep 1 ([2]; strain N0057 (AU35400)): 8000 µg/mL
MBC Rep 1 ([2]; strain N0058 (AU32543)): 8000 µg/mL
MIC Rep 1 ([2]; strain N0058 (AU32543)): 2000 µg/mL
MBC Rep 1 ([2]; strain N0059 (AR-BANK #0054)): >16000 µg/mL
MIC Rep 1 ([2]; strain N0059 (AR-BANK #0054)): 2000 µg/mL
MBC Rep 1 ([2]; strain N0069 (AR-BANK #0090)): >16000 µg/mL
MIC Rep 1 ([2]; strain N0069 (AR-BANK #0090)): 2000 µg/mL
MBC Rep 1 ([2]; strain N0070 (AR-BANK #0092)): >16000 µg/mL
MIC Rep 1 ([2]; strain N0070 (AR-BANK #0092)): 2000 µg/mL
MBC Rep 1 ([2]; strain N0071 (AR-BANK #0100)): >16000 µg/mL
MIC Rep 1 ([2]; strain N0071 (AR-BANK #0100)): 2000 µg/mL
MBC Rep 1 ([2]; strain N0072 (AR-BANK #0105)): >16000 µg/mL
MIC Rep 1 ([2]; strain N0072 (AR-BANK #0105)): 2000 µg/mL
MBC Rep 1 ([2]; strain N0079 (AR-BANK #0108)): >16000 µg/mL
MIC Rep 1 ([2]; strain N0079 (AR-BANK #0108)): 2000 µg/mL
MBC Rep 1 ([2]; strain N0080 (AR-BANK #0110)): >16000 µg/mL
MIC Rep 1 ([2]; strain N0080 (AR-BANK #0110)): 2000 µg/mL
MBC Rep 1 ([2]; strain N0081 (AR-BANK #0111)): >16000 µg/mL
MIC Rep 1 ([2]; strain N0081 (AR-BANK #0111)): 2000 µg/mL
MBC Rep 1 ([2]; strain N0099 (ATCC 29260)): 8000 µg/mL
MIC Rep 1 ([2]; strain N0099 (ATCC 29260)): 2000 µg/mL
MIC BIOC76 ([3]; PAK, alone): 2000 µg/mL
Combo MIC BIOC76 ([3]; PAK, with 0.0039 mg/ml GaCi): 2000 µg/mL
Combo MIC BIOC76 ([3]; PAK, with 0.0078 mg/ml GaCi): 1000 µg/mL
Combo MIC BIOC76 ([3]; PAK, with 0.0156 mg/ml GaCi): 250 to 500 µg/mL
Combo MIC BIOC76 ([3]; PAK, with 0.0313 mg/ml GaCi): 125 µg/mL
MBC BIOC76 alone ([3]; strain N0049 (PAK)): 4000 µg/mL
MIC BIOC76 alone ([3]; strain N0049 (PAK)): 2000 µg/mL
Combo MBC BIOC76 [3, 6]: 4 mg/mL
Δ MBC [3, 6]: 0 fold-decrease
Δ MIC [3, 6]: 4 fold-decrease
Combo MBC BIOC76 [3, 7]: 4 mg/mL
Combo MIC BIOC76 [3, 7]: 125000 µg/mL
Δ MBC [3, 7]: 0 fold-decrease
Δ MIC [3, 7]: 16 fold-decrease
Combo MBC BIOC76 [3, 8]: 4 mg/mL
Combo MIC BIOC76 [3, 8]: <60 µg/mL
Δ MBC [3, 8]: 0 fold-decrease
Combo MBC BIOC76 [3, 9]: 4 mg/mL
Combo MIC BIOC76 [3, 9]: <60 µg/mL
Δ MBC [3, 9]: 0 fold-decrease
Combo MBC BIOC76 [3, 10]: 2 mg/mL
Combo MIC BIOC76 [3, 10]: <60 µg/mL
Δ MBC [3, 10]: 2 fold-decrease
Combo MBC BIOC76 [3, 11]: 2 mg/mL
Combo MIC BIOC76 [3, 11]: <60 µg/mL
Δ MBC [3, 11]: 2 fold-decrease
Combo MBC BIOC76 [3, 12]: 4* mg/ml
Combo MIC BIOC76 [3, 12]: <60 µg/mL
Δ MBC [3, 12]: 0* fold-decrease
Combo MBC BIOC76 [3, 13]: 2 mg/mL
Combo MIC BIOC76 [3, 13]: <60 µg/mL
Δ MBC [3, 13]: 2 fold-decrease
MIC BIOC76 alone [4]: 1000 µg/mL (≈ 539 µM)
MIC BIOC76 combo ([4]; in combination with Ga(NO3)3): 125 µg/mL
MBEC of BIOC76 ([5]; PAK (N0049), 3-log reduction in biofilm): 4 mg/mL
effectiveness against P. aeruginosa biofilms ([5]; biofilms grown under aerobic conditions): effective
